Data on two compounds can be found in patent US20240415859A1, “USE OF ISORHOIFOLIN AND DERIVATIVE THEREOF IN PROMOTING NERVE REPAIR” (priority 2021, published 2024).

Series [1] concerns hippocampal neurons. Briefly: In vitro neural repair assay, injured hippocampal neurons (gap closure rate). In kind it is cell-based. The note with it: E18 rat hippocampal neurons, 72 hours. The procedure:
The experimental procedure is as depicted in FIG. 1. Removed the brain of E18 rat embryos and dissected into cortex and hippocampus. Subsequently, the cortex and hippocampus were separated into cortical neurons and hippocampal neurons, respectively. Then, seeded hippocampal neurons on 48-well plates. The first day that neurons are cultured in vitro is defined as day in vitro 0 (DIV0). On DIV2, Cytosine beta-D-arabinoside (AraC) was added to neurons to inhibit the proliferation of glial cells. On DIV8, neurons were injured using pipette tips (p10 tips) and various concentrations of Isorhoifolin was added. After 72 hours, immunostaining was performed. TUJ1 antibody was used to label neuronal cells to observe the regrowth of neurites. Images were taken using Observer Z1 microscope. As depicted in FIG. 2, the degree of neuronal axon regeneration was quantified using the gap closure rate. White dashed lines indicate the borders of injury gap, the central black area represents the region scratched by the tip of a pipette tips. The newly regenerated neurites grow from the white dashed lines toward the center of the gap. To quantify the results, we measured the lengths of gap (Lg) and distance between regenerated neurites (Ln) every 50 μm. […] Gap closure rate is calculated using the formula: (Lg−Ln)/Lg. […]

Series [2] relates to cortical neurons. The series can be described thus: In vitro neural repair assay, injured cortical neurons (gap closure rate). In kind it is cell-based. Particulars: E18 rat cortical neurons, injured DIV8, 10 nM and 100 nM, 72 hours, standardized against 0.1% DMSO. An excerpt: As depicted in FIG. 2, the degree of neuronal axon regeneration was quantified using the gap closure rate. White dashed lines indicate the borders of injury gap, the central black area represents the region scratched by the tip of a pipette tips. The newly regenerated neurites grow from the white dashed lines toward the center of the gap. To quantify the results, we measured the lengths of gap (Lg) and distance between regenerated neurites (Ln) every 50 μm. After unbiasedly drawing ten lines of equal distance, the average distance between neurites is taken: Length of gap between regenerated neurons (Ln). Gap closure rate is calculated using the formula: (Lg−Ln)/Lg. Scale bar=100 μm. Images were taken using Observer Z1 microscope. The experimental procedure is also as depicted in FIG. 1. Removed the brain of E18 rat embryos and dissected into cortex and hippocampus. Subsequently, the cortex and hippocampus were separated into cortical neurons and hippocampal neurons, respectively. Then, seeded cortical neurons on 48-well plates. The first day that neurons are cultured in vitro is defined as day in vitro 0 (DIV0). On DIV2, Cytosine beta-D-arabinoside (AraC) was added to neurons to inhibit the proliferation of glial cells. On DIV8, neurons were injured using pipette tips (p10 tips) and 10 nM and 100 nM Narirutin was added. […]

The subject of series [3] is injured brain sections. The series can be described thus: Ex vivo 3D brain tissue slice culture, scalpel injury. The note with it: E18 rat brain slices 350 μm, added every day, 96 hours, vs ddH2O. In kind it is cell-based. An excerpt: For the experiment, we took out the brain of E18 rat embryos and embedded in low-melting agarose. The brains were sectioned using Leica microtome VT100. The tissue sections were collected with 350 μm thick and injured using a scalpel. And placed them in inserts within a 6-well plate. This culturing method allows the brain slices to be exposed to both medium and air, facilitating a more realistic representation of the interactions between neuronal cells and other brain cells, as well as the three-dimensional structure, compared to in vitro culture. ddH2O or Isorhoifolin was added to injured brain sections every day. After 96 hours, immunostaining was performed. TUJ1 antibody was used to label neuron cells. GFAP antibody was used to label glial cells. DAPI was used to label nucleus. The experimental procedure for the Isorhoifolin derivative Narirutin is also depicted in FIG. 6. Took out the brain of E18 rat embryos and embedded in low-melting agarose. The brains were sectioned using Leica microtome VT100. The tissue sections were collected with 350 μm thick and injured using a scalpel. And placed them in inserts within a 6-well plate. […]

Series [4] concerns Neuro2a cells. The series can be described thus: CellTiter-Glo cell viability assay (cytotoxicity). It counts as cell-based. An excerpt:
Utilizing the CellTiter-Glo cell viability assay to assess the toxicity of Isorhoifolin on Neuro2a cells. CellTiter-Glo cell viability assay can detect the level of ATP in neuro2a cells after treatment of compounds to evaluate the survival rate.

Series [5] deals with motor coordination after brain injury. The series can be described thus: Controlled cortical impact (CCI) brain injury model, horizontal bar test. In kind it is in vivo. Particulars: mice, 14 or 140 μg/kg intranasal at 0, 2, 4, 6, 8, 10, 12 Dpi, tested 1, 3, 6, 10, 13 Dpi, vs ddH2O and Sham. On the procedure:
Using the horizontal bar test, mice were placed on brass rods positioned at a height of 49 cm above the ground, with lengths of 38 cm and diameters of 2 mm, 4 mm, and 6 mm. Mice were required to grasp the brass rod with their forepaws, and their ability to move and coordinate was assessed by measuring the time spent on the brass rod and whether they reached the platform at the end of the rod. Evaluation criteria were as follows: 1 point for 1-5 seconds, 2 points for 5-10 seconds, 3 points for 10-20 seconds, 4 points for 20-30 seconds, and 5 points for over 30 seconds or reaching the platform. The experimental model, as depicted in FIG. 10, involved pre-training at −5, −3, and −1 days post injury (Dpi) (5, 3, and 1 day(s) before brain injury). At 0 Dpi, the controlled cortical impact model (CCI model) was used to induce brain injury in mice. Subsequently, at 0, 2, 4, 6, 8, 10, and 12 Dpi, mice were administered Isorhoifolin at doses of 14 or 140 μg/kg via intranasal delivery. Horizontal bar experiments were conducted at 1, 3, 6, 10, and 13 Dpi.

Series [6] deals with retinal explants. The series can be described thus: Ex vivo retinal explant neuronal tissue repair. It counts as cell-based, C57BL/6 mice. The note with it: P8 mouse retinal explants, 9 μM or 90 μM, five days, vs ddH2O. The procedure: Retinal explants were obtained from C57BL/6 mice at postnatal day 8. Following the sacrifice of mice, the eyes were enucleated, and the eyeballs were dissected using forceps and microscissors to separate the retina and remove the vitreous. Subsequently, the dissected retinas were quartered and trimmed along the edges of the tissue using microscissors. Each quarter was cultured on an 18 mm round coverslip and placed in a 12-well plate inside a CO2 incubator at 35° C. for five days. The culture medium was replaced daily with fresh medium containing either 9 μM or 90 μM Isorhoifolin. On the fifth day of culture, the retinal tissues were fixed with a mixture of 0.1% glutaraldehyde solution and 4% paraformaldehyde at room temperature for one hour. Immunostaining was performed using primary antibodies against the axonal marker beta-III-tubulin (TUJ1) and DAPI to label neurons and cell nuclei, respectively. Images were acquired using a super-resolution upright confocal microscope (LSM-800, Carl Zeiss). ImageJ software was utilized for image analysis, wherein the tissue boundary was delineated to calculate the perimeter and the area of neuronal fibers outside the tissue boundary. The ratio of neuronal fiber area to tissue boundary perimeter was then calculated to determine the unit perimeter neuronal fiber length.

Consider Narirutin, for which the “neurite regeneration after injury (gap closure rate)” value in series [1] (injured DIV8, 1 nM and 10 nM, standardized against 0.1% DMSO) is given as “effectively promotes dendritic outgrowth in hippocampal neurons”; in series [2] it was “effectively promotes dendritic outgrowth in cortical neurons”. Besides, the “neurite outgrowth after injury in ex vivo 3D brain slice culture” value in series [3] is on record as “promotes neurite outgrowth after injury in ex vivo 3D brain slice culture”.
With `C[C@@H]1O[C@@H](OC[C@H]2O[C@@H](Oc3cc(O)c4c(=O)cc(-c5ccc(O)cc5)oc4c3)[C@H](O)[C@@H](O)[C@@H]2O)[C@H](O)[C@H](O)[C@H]1O` [Isorhoifolin], the “neurite regrowth after injury (gap closure rate)” value in series [1] (injured DIV8, various concentrations, TUJ1 staining) was “promotes neurite regrowth after injury in hippocampal neurons”. Moreover, in series [3], the “neurite outgrowth after injury in ex vivo 3D brain slice culture” value is “promotes neurite outgrowth after injury in ex vivo 3D brain slice culture”. The “toxicity towards Neuro2a cells” value in series [4] is “low toxicity”. Also, the half-inhibitory concentration (IC50) in series [4] (Mus musculus, N2a, CellTiter-Glo, read-out: IC50 (cell viability, ATP level)) is approximately 11.6 mM. Moreover, the “motor coordination recovery (horizontal bar test score)” value in series [5] is given as “motor coordination was similar to that of the Sham (surgery control) group”. For the same compound, the “recovery of injured retinal neurons (unit perimeter neuronal fiber length)” value in series [6] is listed as “significant recovery of injured retinal neurons”.

Broadly, the IC50 is the concentration that inhibits the measured activity by half.
